The kinact/KI is the second-order rate constant of inactivation.

SMILES strings stand for the structures.

This assay has as its target T1, PRORP1 C373A (Arabidopsis thaliana, UniProt Q66GI4, C373A).
T1 construct: made in house
The assay can be described thus: Time-dependent inactivation by juglone, PRORP1 C373A. The assay is classed as biochemical, A. thaliana. The method, then: Given the multiple sites of cysteine modification, we wanted to identify the one(s) that potentially play a significant role in PRORP1 inactivation. Therefore, several cysteine-to-alanine point mutants were expressed, purified, and subjected to inhibition studies. We tested both single-site (C353A and C373A) and double-site (C353A/C373A and C222A/C353A) mutations. […] The value of kinact,app for each PRORP1 at varied concentrations of juglone was determined by fitting a single exponential equation (Equation 5) to the data (Fig. 10A). Unexpectedly, the values of kinact/KI (reflecting the inhibition of E + I to form EI∗) increased for a number of the PRORP1 variants: wildtype (0.001 ± 0.00004 μM^-1 min^-1), C353A (0.005 ± 0.002 μM^−1 min^−1), C373A (0.002 ± 0.0004 μM^-1 min^−1), C222A/C353A (0.003 ± 0.0001 μM^−1 min^−1), and C353A/C373A (0.0008 ± 0.0002 μM^-1 min^−1). These modest increases could be due to a decrease in the KI value or an increase in the value of kinact. […] Although, we cannot discount the possibility, however unlikely, that juglone may employ a mode of inhibition beyond cysteine residue modification that our crystal structures fail to capture.
Figure 10 Effects of PRORP1 cysteine mutations on juglone inactivation. […]
For the analysis of juglone, PRORP1 activity was measured with varying preincubation time and juglone concentration. […]

T1 sequence (Q66GI4 77-572 C373A): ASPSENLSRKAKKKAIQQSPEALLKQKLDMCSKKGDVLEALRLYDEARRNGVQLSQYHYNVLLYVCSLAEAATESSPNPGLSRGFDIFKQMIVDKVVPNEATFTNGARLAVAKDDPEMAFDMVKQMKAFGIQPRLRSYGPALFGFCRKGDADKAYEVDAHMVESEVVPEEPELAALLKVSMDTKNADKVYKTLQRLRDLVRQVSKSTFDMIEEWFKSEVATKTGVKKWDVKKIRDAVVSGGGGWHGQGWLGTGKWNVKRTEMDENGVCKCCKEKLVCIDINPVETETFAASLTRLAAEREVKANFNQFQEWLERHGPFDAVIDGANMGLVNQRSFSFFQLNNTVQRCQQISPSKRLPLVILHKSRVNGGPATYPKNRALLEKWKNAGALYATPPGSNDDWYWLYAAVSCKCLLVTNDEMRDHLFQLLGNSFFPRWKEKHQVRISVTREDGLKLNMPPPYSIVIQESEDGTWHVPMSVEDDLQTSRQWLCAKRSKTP

As for `O=C1C=CC(=O)c2c(O)cccc21` [juglone, 5-hydroxy-1,4-naphthalenedione], the Ki was greater than 10 µM and the kinact/KI is 33.3 M⁻¹ s⁻¹.

These data come from article PMC9731865, “Gambogic acid and juglone inhibit RNase P through distinct mechanisms” (The Journal of Biological Chemistry, 2022).
